From PubChem BioAssay (NCI) come the findings set out here.

Test systems include ACHN renal; CCRF-CEM leukemia; PC-3 prostate; HCT-116 colon; SNB-19 CNS; EKVX NSCLC; SNB-75 CNS; OVCAR-5 ovarian; OVCAR-3 ovarian; NCI/ADR-RES ovarian; TK-10 renal.
Assay in all cases: DTP human tumour cell line panel, 48 h

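Step 1: Grow cells in 96-well plates. Step 2: Expose to compound for 48 hours at 5 concentrations. Step 3: Interpolate endpoints linearly; if unreached, use highest concentration. TGI: concentration producing complete growth inhibition.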 A value given as a limit tells only on which side of the number the result lay.

Usually TGI stands for the concentration giving total growth inhibition. Higher therefore signals lower sensitivity of the cells. Turning to `Cc1cc(-c2nc3cc(F)c(F)cc3s2)ccc1N`, the concentration for total growth inhibition (TGI) in the assay with ACHN renal, with CCRF-CEM leukemia, with PC-3 prostate, in the assay with HCT-116 colon, in the assay with SNB-19 CNS and in the assay with EKVX NSCLC was above 100 µM in each case. For the same compound, the TGI with SNB-75 CNS is above 92.9 µM; in the assay with OVCAR-5 ovarian, above 100 µM; in the assay with OVCAR-3 ovarian it was above 100 µM; in the assay on NCI/ADR-RES ovarian, above 100 µM.

On to `CC1Cc2cc(O)ccc2C2[C@@H]1C1CC[C@H](O)[C@@]1(C)C[C@@H]2O[N+](=O)[O-]` (stereo partly drawn), for which the TGI with ACHN renal is above 100 µM; in the assay with CCRF-CEM leukemia, 41.9 µM; in the assay with PC-3 prostate it was above 100 µM; with HCT-116 colon, 31.1 µM; in the assay with SNB-19 CNS, 98.7 µM; with EKVX NSCLC, above 100 µM. Besides, the TGI was 63.8 µM in the assay with TK-10 renal; above 100 µM with SNB-75 CNS; above 100 µM in the assay on OVCAR-5 ovarian; above 84.1 µM in the assay with OVCAR-3 ovarian; 38.9 µM with NCI/ADR-RES ovarian.

Consider `Cn1cnc([N+](=O)[O-])c1Sc1nc(N)nc2c1ncn2Cc1ccccc1`, for which the TGI is 31.3 µM in the assay on ACHN renal; above 100 µM with CCRF-CEM leukemia; 36.3 µM with PC-3 prostate; 42.1 µM in the assay with HCT-116 colon; above 100 µM in the assay with SNB-19 CNS; 42.3 µM in the assay with EKVX NSCLC. The TGI was 41.9 µM with TK-10 renal; above 100 µM in the assay on SNB-75 CNS; 63.1 µM in the assay on OVCAR-5 ovarian; 9.97 µM with OVCAR-3 ovarian; above 100 µM in the assay with NCI/ADR-RES ovarian.

Consider `CCc1n[nH]c(=O)n1NC(=O)/C=C\C(=O)O`, for which the TGI in the assay with CCRF-CEM leukemia, in the assay with PC-3 prostate, in the assay with HCT-116 colon, in the assay with EKVX NSCLC, with TK-10 renal and with SNB-75 CNS was above 100 µM in each case. For the same compound, the total growth inhibition concentration (TGI) in the assay with OVCAR-5 ovarian, in the assay with OVCAR-3 ovarian and in the assay on NCI/ADR-RES ovarian was above 100 µM in each case.

With `Cc1cc(C#N)c(Nc2c(C)cccc2[N+](=O)[O-])s1`, the TGI in the assay with ACHN renal is above 100 µM; in the assay with CCRF-CEM leukemia, 55 µM; in the assay on PC-3 prostate, 54.4 µM; in the assay on HCT-116 colon, above 100 µM; in the assay with SNB-19 CNS, above 100 µM; in the assay on EKVX NSCLC it was above 100 µM. For the same compound, the TGI in the assay with SNB-75 CNS is 72.2 µM; with OVCAR-5 ovarian, above 100 µM; in the assay on OVCAR-3 ovarian, above 100 µM; in the assay on NCI/ADR-RES ovarian it was 82.3 µM.

In the case of `CCOC1SC(SC)=NN1C(=O)C(OC(C)=O)C(OC(C)=O)C(OC(C)=O)C(OC(C)=O)C(=O)N1N=C(SC)SC1OCC` (stereo not drawn), the TGI with ACHN renal, with CCRF-CEM leukemia, in the assay on PC-3 prostate, with HCT-116 colon, in the assay with SNB-19 CNS and in the assay on EKVX NSCLC was above 100 µM in each case. Besides, the TGI in the assay with TK-10 renal, with SNB-75 CNS, with OVCAR-5 ovarian, in the assay on OVCAR-3 ovarian and in the assay with NCI/ADR-RES ovarian was above 100 µM each time.

For `C=C(C(=O)O)[C@@H]1C[C@@H]2O[C@H]1CC(C)=CCC/C(C)=C/CC[C@@]2(C)O`, the TGI with ACHN renal, in the assay with CCRF-CEM leukemia, in the assay on PC-3 prostate, with HCT-116 colon, with SNB-19 CNS and in the assay with EKVX NSCLC was above 100 µM in each case. Besides, the TGI in the assay with TK-10 renal, in the assay with SNB-75 CNS, in the assay on OVCAR-5 ovarian, in the assay with OVCAR-3 ovarian and in the assay with NCI/ADR-RES ovarian was above 100 µM each time.

`CC1(C)OC(=S)N(c2ccccc2)C12C=Cc1cc3ccccc3cc1O2` (stereo not drawn): the TGI in the assay with ACHN renal, in the assay on CCRF-CEM leukemia, with PC-3 prostate, in the assay on HCT-116 colon, in the assay with SNB-19 CNS and in the assay on EKVX NSCLC was above 100 µM each time. Also, the TGI with TK-10 renal, in the assay on SNB-75 CNS, with OVCAR-5 ovarian, with OVCAR-3 ovarian and with NCI/ADR-RES ovarian was above 100 µM in each case.

As for `CCOP(C)(=O)C(Nc1ccc(F)cc1)c1ccc(F)cc1` (stereo not drawn), the total growth inhibition concentration (TGI) in the assay with ACHN renal, with CCRF-CEM leukemia, with PC-3 prostate, in the assay on HCT-116 colon, in the assay on SNB-19 CNS and in the assay on EKVX NSCLC was above 100 µM each time. Also, the TGI in the assay on TK-10 renal, with OVCAR-5 ovarian, in the assay with OVCAR-3 ovarian and with NCI/ADR-RES ovarian was above 100 µM throughout.

As for `CCN(CC)C1=Nc2ccccc2-n2c(C)cnc2C1`, the total growth inhibition concentration (TGI) in the assay on ACHN renal, with CCRF-CEM leukemia, in the assay on PC-3 prostate, in the assay with HCT-116 colon, with SNB-19 CNS and in the assay on EKVX NSCLC was above 100 µM each time. The total growth inhibition concentration (TGI) with TK-10 renal, in the assay with SNB-75 CNS, in the assay with OVCAR-5 ovarian, in the assay on OVCAR-3 ovarian and in the assay on NCI/ADR-RES ovarian was above 100 µM throughout.

For the compound `Cc1ccc(C)c(NC(=O)C(Cc2c[nH]c3ccccc23)NC(=O)OCc2ccccc2)c1` (stereo not drawn), the total growth inhibition concentration (TGI) with ACHN renal is above 100 µM; with CCRF-CEM leukemia, 12.2 µM; in the assay on PC-3 prostate it was 28.6 µM; with HCT-116 colon, 98.6 µM; with SNB-19 CNS it was 27.6 µM; with EKVX NSCLC, 49 µM. Moreover, the TGI in the assay on TK-10 renal was 39.2 µM; in the assay with SNB-75 CNS, 27.9 µM; in the assay with OVCAR-5 ovarian it was above 100 µM; in the assay with OVCAR-3 ovarian, above 100 µM; in the assay with NCI/ADR-RES ovarian, 33 µM.

Consider `Cc1cc2[nH]c3c(C#N)c(-c4ccccc4)c(CN4CCOCC4)c(=O)n3c2cc1C`, for which the concentration for total growth inhibition (TGI) in the assay on ACHN renal, in the assay with CCRF-CEM leukemia, in the assay with PC-3 prostate, with HCT-116 colon, with SNB-19 CNS and with EKVX NSCLC was above 100 µM each time. In addition, the TGI in the assay on TK-10 renal, with SNB-75 CNS, in the assay with OVCAR-5 ovarian, with OVCAR-3 ovarian and with NCI/ADR-RES ovarian was above 100 µM throughout.

For the compound `N/N=C(\C(=O)Nc1ccc([N+](=O)[O-])cc1)C(C1=Nc2cc([N+](=O)[O-])ccc2NC1)[N+](=O)[O-]` (stereo not drawn), the TGI in the assay with ACHN renal, with CCRF-CEM leukemia, in the assay on PC-3 prostate, with HCT-116 colon, with SNB-19 CNS and in the assay with EKVX NSCLC was above 100 µM throughout. The TGI with TK-10 renal, with SNB-75 CNS, in the assay with OVCAR-5 ovarian, in the assay with OVCAR-3 ovarian and in the assay with NCI/ADR-RES ovarian was above 100 µM each time.
